According to patent US7439051B2, “Process for utilizing epitopes recognized by natural antibodies” (Mirus Bio Corporation, priority 1999, dated 2008):

T1: CRP (Rattus norvegicus, UniProt P48199)
T1 construct: from tissue; host or cells: rat serum
T1 sequence (P48199 20-230): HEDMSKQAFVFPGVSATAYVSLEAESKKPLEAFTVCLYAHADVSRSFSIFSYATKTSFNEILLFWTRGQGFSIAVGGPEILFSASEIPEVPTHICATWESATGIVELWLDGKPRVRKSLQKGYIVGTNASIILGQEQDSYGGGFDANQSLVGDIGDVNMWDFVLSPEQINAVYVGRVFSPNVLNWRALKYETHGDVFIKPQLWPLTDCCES

B1: Plasminogen: plasminogen bound by Lysine-Sepharose, eluted by ε-aminocaproic acid (protein, UniProt P00747 20-810, looked up)
Plasminogen: EPLDDYVNTQGASLFSVTKKQLGAGSIEECAAKCEEDEEFTCRAFQYHSKEQQCVIMAENRKSSIIIRMRDVVLFEKKVYLSECKTGNGKNYRGTMSKTKNGITCQKWSSTSPHRPRFSPATHPSEGLEENYCRNPDNDPQGPWCYTTDPEKRYDYCDILECEEECMHCSGENYDGKISKTMSGLECQAWDSQSPHAHGYIPSKFPNKNLKKNYCRNPDRELRPWCFTTDPNKRWELCDIPRCTTPPPSSGPTYQCLKGTGENYRGNVAVTVSGHTCQHWSAQTPHTHNRTPENFPCKNLDENYCRNPDGKRAPWCHTTNSQVRWEYCKIPSCDSSPVSTEQLAPTAPPELTPVVQDCYHGDGQSYRGTSSTTTTGKKCQSWSSMTPHRHQKTPENYPNAGLTMNYCRNPDADKGPWCFTTDPSVRWEYCNLKKCSGTEASVVAPPPVVLLPDVETPSEEDCMFGNGKGYRGKRATTVTGTPCQDWAAQEPHRHSIFTPETNPRAGLEKNYCRNPDGDVGGPWCYTTNPRKLYDYCDVPQCAAPSFDCGKPQVEPKKCPGRVVGGCVAHPHSWPWQVSLRTRFGMHFCGGTLISPEWVLTAAHCLEKSPRPSSYKVILGAHQEVNLEPHVQEIEVSRLFLEPTRKDIALLKLSSPAVITDKVIPACLPSPNYVVADRTECFITGWGETQGTFGAGLLKEAQLPVIENKVCNRYEFLNGRVQSTELCAGHLAGGTDSCQGDSGGPLVCFEKDKYILQGVTSWGLGCARPNKPGVYVRVSRFVTWIEGVMRNN

How the values were obtained:
[1] = molecular target: T1, CRP; experiment: Reduction by PC of K+/R+ phage protection in vitro; format: biochemical
Source text: PC reduced the protection of K+/R+ phage both in vivo and in vitro, thereby confirming the role of CRP as a K+/R+ protection agent (FIG. 1B and Table 2K, respectively). […] Direct interaction between CRP and K+/R+ phage was shown with the phage immobilized on Affi-Gel 15. Immobilized K+/R+ phage, but not K−/R− phage, bound a substantial amount of serum protein that was eluted from the column by ε-ACA (FIG. 2C). […] The identification of this protein as CRP was confirmed by the Western blot analysis (FIG. 2B, lanes 2 and 3). No binding of CRP to K−/R− phage or a mock column was detected. […] The presence of multiple CRP molecules on surface of K+/R+ phage could provide steric protection against C-mediated inactivation. The role of CRP in protecting K+/R+ phage against C is consistent with the lack of protection for K+/R+ phage in human serum which normally contains little CRP.

[2] = Phage survival in rat serum in vitro (plaque forming assay); format: in vitro ADME; conditions: protein eluted from Lysine-Sepharose by ε-ACA; data not shown
Method: Serum preparation. Rat serum was prepared by clotting blood on ice.

Row | Molecule | IC50 ([1]; K+19/16 clone) | IC50 ([1]; R+19/14 clone) | protective effect on phage [2]
1 | C[N+](C)(C)CCOP(=O)(O)O [PC, phosphorylcholine] | ~50 µM | ~50 µM | 
2 | B1 |  |  | no protective effect
